In patent US11253527B2, “Method and composition for inhibiting virus infection” (priority 2019, dated 2022):

Assays:
[1] = tested on: Oral epithelial cells (OC3); experiment: MTT cell viability of mock- or HSV-1-infected oral epithelial cells (OC3); assay type: cell-based; conditions: OC3 cells, MTT, 19 hours post infection
Experimental: (§1) FIG. 4 provides Experimental conditions for evaluation of the effects of Antrodia camphorata fruit body extracts on oral epithelial cells during HSV-1 infection. Three experimental conditions, including no-treatment, pre-treatment and post-treatment were performed. Oral epithelial cells (OC3) were pre-treated with media only or media containing each Antrodia camphorata extracts for 2 hours, followed by HSV-1 inoculation. Cells were infected with HSV-1 viruses at multiplicity of infection (MOI) of 5 or mock infected for 1 hour at 37° C. for viral entry to occur. Antrodia camphorata extracts were not added during viral inoculation for 1 hour to avoid of its direct effects on virions. Mock- or HSV-1-infected cells were further incubated in the absence or presence of the drug for 19 hours.
The oral epithelial cell line (OC3) was used to determine the possible effects of Antrodia camphorata extracts on oral epithelial cells during HSV-1 infection. Cell monolayers were treated as illustrated in FIG. 4 (please also see details in the Materials and Methods section). Three experimental conditions, including no-treatment, pre-treatment and post-treatment were performed. Whether these Antrodia camphorata extracts have effects before or after viral infection were examined. The effects of Antrodia camphorata extracts on viral propagation (viral yields) in infected oral epithelial cells were examined. At 19-20 h post infection, viral yields in the supernatants were determined using the plaque assay. Viability of treated cells was also determined using the MTT assay for the mitochondrial dehydrogenase activity. Moreover, purified HSV-1 virions were directly treated with Antrodia camphorata extracts to examine whether Antrodia camphorata extracts exert anti-HSV-1 activity directly on virus particles before viral entry. […]
The mitochondrial dehydrogenase activity of treated cells was evaluated using the FBS-free medium containing 1 mg/ml of 3-[4,5-dimethylthiazol-2-yl]-2,5 diphenyltetrazolium bromide (MTT). […]

HSV-1 virus (KOS strain) = experiment: HSV-1 viral yields in supernatants of OC3 cells, plaque assay; assay type: cell-based, Herpes simplex virus type 1; conditions: for viral yields in the supernatants, post-treatment: OC3 cells post-treated after HSV-1 infection (MOI 5), 19 hours; for viral yield reduced to: media control = 100%; for viral yields in the supernatants, pre-treatment: OC3 cells pre-treated 2 hours before HSV-1 infection (MOI 5)
Experimental: as §1
(§2) The oral epithelial cell line (OC3) was used to determine the possible effects of Antrodia camphorata extracts on oral epithelial cells during HSV-1 infection. Cell monolayers were treated as illustrated in FIG. 4 (please also see details in the Materials and Methods section). Three experimental conditions, including no-treatment, pre-treatment and post-treatment were performed. Whether these Antrodia camphorata extracts have effects before or after viral infection were examined. The effects of Antrodia camphorata extracts on viral propagation (viral yields) in infected oral epithelial cells were examined. At 19-20 h post infection, viral yields in the supernatants were determined using the plaque assay. Viability of treated cells was also determined using the MTT assay for the mitochondrial dehydrogenase activity. Moreover, purified HSV-1 virions were directly treated with Antrodia camphorata extracts to examine whether Antrodia camphorata extracts exert anti-HSV-1 activity directly on virus particles before viral entry.
HSV-1 virus (KOS strain) from the extra-cellular fluid of infected Vero cells was purified using sucrose-gradient. Purified viruses were stored frozen in small aliquots. Purified viruses were titered using the plaque assay.
Oral epithelial cells (OC3 cells) were infected with HSV-1 at multiplicity of infection (MOI) of 5 or mock infected for 1 h at 37° C. for viral entry to occur. Unbound viruses were removed. Infected cells were then overlaid with appropriate media and incubated at 37° C. The Antrodia camphorata fruit body extracts used were A2 (Antrodia camphorata extracts), A3 (dehydrosulphurenic acid), A4 (antcin K), A5 (versisponic acid), and A6 (dehydroeburicoic acid). For the effects of Antrodia camphorata fruit body extracts, oral cells were treated in three different experimental conditions (FIG. 1): (1) no treatment, (2) pre-treatment with each Antrodia camphorata fruit body extracts before infection and (3) post-treatment with each Antrodia camphorata fruit body extracts after infection. Purified HSV-1 virions were also incubated directly with media only or media containing Antrodia camphorata fruit body extracts. The viral infectivity of treated virions was then examined using the plaque assay.
Viral titers in the supernatants after infection were determined using the plaque assay. Cells were grown to confluence and infected with tenfold serial dilution of the samples. Cells were then overlaid with medium containing 3% carboxymethylcellulose to prevent the formation of secondary plaques. Cells were incubated until well-defined clear plaques were formed. Cells were fixed with 3.7% formaldehyde and stained with crystal violet. Plaques were observed and counted under an inverted microscope. The viral yield of the media-pretreated HSV-1 infected control was considered to be 100%.

HBV = HBV entry/infection of DMSO-differentiated HuS-E/2 cells (HBsAg/HBeAg ELISA, HBV mRNA RT-PCR); assay type: cell-based, Hepatitis B virus; conditions: for levels of HBV mRNA: HuS-E/2 cells, drug present during infection; for inhibiting the entry of HBV into HuS-E/2 cells: by HBsAg, HBeAg and HBV mRNA expression levels
Experimental: DMSO-differentiated HuS-E/2 cells were exposed to HBV at a MOI of 10 for 20 h in the presence of the indicated concentration of Antrodia camphorata fruit body extracts, then the HBV and drugs were removed and the cells incubated for 2 days, when HBsAg secreted into the culture medium was measured by ELISA and expressed as a percentage of the value for the non-drug-treated controls. The results are the mean±SD for three independent experiments. *, P<0.05; **, P<0.01; ***, P<0.001.
DMSO-differentiated HuS-E/2 cells were exposed to HBV at a MOI of 10 for 20 h in the presence of the indicated concentration of Antrodia camphorata fruit body extracts, then the HBV and drugs were removed and the cells incubated for 2 days, when HBeAg secreted into the culture medium was measured by ELISA and expressed as a percentage of the value for the non-drug-treated controls. The results are the mean±SD for three independent experiments. *, P<0.05; **, P<0.01; ***, P<0.001.
DMSO-differentiated HuS-E/2 cells were exposed to HBV at a MOI of 10 for 20 h in the presence of the indicated concentration of Antrodia camphorata fruit body extracts, then the HBV and drugs were removed and the cells incubated for 2 days. RNA was then extracted from cells and subjected to RT-PCR to measure HBV mRNA levels. The results expressed were as a percentage of the value for the non-drug-treated cells. Control PCRs were performed for endogenous GAPDH mRNA as the loading control. The results are the mean±SD for three independent experiments. *, P<0.05; **, P<0.01; ***, P<0.001.
HuS-E/2 cells that retains primary hepatocyte characteristics even after prolonged culture are utilized for HBV infection. For HBV infection, HuS-E/2 cells were differentiated with 2% DMSO for 7 days, and virus particles were collected to infect and replicate in HuS-E/2 cells as described in our previous study. These cells are useful to assay infectivity of HBV strains, and screening of anti-HBV agents.
Total DNA is extracted with a Genomic DNA isolation kit (Nexttec Biotechnologie, Germany). Total RNA is isolated from cultured cells using TRIzol® reagent (Invitrogen). […] The results are analyzed with the iCycler iQ real-time PCR detection system (Bio-Rad). […]
To evaluate the effects of Antrodia camphorata fruit body extracts on HBV infectivity and replication, HuS-E/2 cells were infected with ayw subtype HBV derived from HepG2.2.15 cells. The different Antrodia camphorata fruit body extracts were added to the medium during infection with HBV for […], then the infected cells were washed and incubated in fresh medium for 48 hours, when HBsAg and HBeAg in culture medium were detected by ELISA and HBV mRNA was detected by real-time PCR as an index of efficiency of HBV infection.

HSV-1 virions = experiment: Direct effect on infectivity of purified HSV-1 virions, plaque assay; assay type: cell-based, Herpes simplex virus type 1; conditions: purified virions incubated directly with drug 1 hour at 37° C., dose-dependent
Experimental: Purified HSV-1 was incubated directly with media containing various concentrations of each Antrodia camphorata extracts for 1 hour at 37° C. The viral titers were then examined in oral epithelial cells (OC3) using the plaque assay. The results shown are the mean±SEM from at least three independent experiments. Statistical differences are shown by different lowercase letters (analysis of variance, Tukey, α=0.05).
as §2
Oral epithelial cells (OC3 cells) were infected with HSV-1 at multiplicity of infection (MOI) of 5 or mock infected for 1 h at 37° C. for viral entry to occur. Unbound viruses were removed. Infected cells were then overlaid with appropriate media and incubated at 37° C. The Antrodia camphorata fruit body extracts used were A2 (Antrodia camphorata extracts), A3 (dehydrosulphurenic acid), A4 (antcin K), A5 (versisponic acid), and A6 (dehydroeburicoic acid). […]
Viral titers in the supernatants after infection were determined using the plaque assay. […] Plaques were observed and counted under an inverted microscope. […]

[2] = tested on: HuS-E/2 immortalized human primary hepatocytes cells; experiment: MTT cell viability, HuS-E/2 cells; conditions: 48 h, 20 μg/ml
HepG2.2.15 cells = experiment: MTT cell viability, HepG2.2.15 cells; conditions: 48 h, 20 μg/ml
[3] = OC3 cells post-treated with 2.5 μg/ml after HSV-1 infection
[4] = OC3 cells pre-treated with 10 μg/ml for 2 hours before HSV-1 infection

Compound | viability of mock-infected cells or HSV-1 infected cells [1] | viral yields in the supernatants, post-treatment (HSV-1 virus (KOS strain)) | viral yield reduced to (HSV-1 virus (KOS strain); [3]) [%] | viral yields in the supernatants, pre-treatment (HSV-1 virus (KOS strain)) | viral yield reduced to (HSV-1 virus (KOS strain); [4]) [%] | levels of HBV mRNA (HBV) | inhibiting the entry of HBV into HuS-E/2 cells (HBV) | viral yield reduced to (HSV-1 virus (KOS strain); OC3 cells pre-treated with 25 μg/ml for 2 hours before HSV-1 infection) [%] | viral yield reduced to (HSV-1 virus (KOS strain); infected OC3 cells post-treated with 12.5 μg/ml) [%] | viral infectivity of treated HSV-1 virions (HSV-1 virions) | toxic effect (MTT cell viability) [2] | toxic effect (MTT cell viability) (HepG2.2.15 cells)
C=C(CC[C@H](C(=O)O)[C@H]1C[C@H](O)[C@@]2(C)C3=CC[C@H]4C(C)(C)[C@@H](O)CC[C@]4(C)C3=CC[C@]12C)C(C)C [A3, dehydrosulphurenic acid] | not affected evidently | did not reach statistical difference | 65 | did not reach statistical difference | 57 |  |  |  |  |  |  | 
C=C(CC[C@@H](C(=O)O)[C@H]1C[C@H](OC(C)=O)[C@@]2(C)C3=C(CC[C@]12C)[C@@]1(C)CC[C@H](O)C(C)(C)[C@@H]1CC3)C(C)C [A5, versisponic acid] | not affected evidently | significantly reduced |  | significantly reduced |  | decrease | much more effective | 48 | 57 | statistically significantly inhibited | no toxic effect | little or no toxic effect
C=C(CC[C@@H](C(=O)O)[C@H]1CC[C@@]2(C)C3=CC[C@H]4C(C)(C)[C@@H](O)CC[C@]4(C)C3=CC[C@]12C)C(C)C [A6, dehydroeburicoic acid] |  | significantly reduced | 63 | significantly reduced | 37 | decrease | much more effective |  |  | statistically significantly inhibited | no toxic effect | 
